From PubChem BioAssay (NCI)
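Values below derive from 48-hour exposures of cells grown in 96-well plates, with endpoints linearly interpolated between the two concentrations bracketing the appropriate inhibition level. Here, GI50 denotes the concentration required for 50% inhibition of growth. At the TGI there is no net growth.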

Tests used:
Assay in all cases: NCI tumour cell line growth inhibition, 48 h
HCT-15 colon = test system: HCT-15 colon
A498 renal = test system: A498 renal
BT-549 breast = test system: BT-549 breast
MOLT-4 leukemia = test system: MOLT-4 leukemia
MDA-MB-231 breast = test system: MDA-MB-231 breast
A549 NSCLC = test system: A549 NSCLC
RXF 393 renal = test system: RXF 393 renal
KM12 colon = test system: KM12 colon
UACC-257 melanoma = test system: UACC-257 melanoma
DU-145 prostate = test system: DU-145 prostate
MDA-MB-435 = test system: MDA-MB-435
NCI-H226 lung = test system: NCI-H226 lung
HOP-62 NSCLC = test system: HOP-62 NSCLC
OVCAR-5 ovarian = test system: OVCAR-5 ovarian
SK-MEL-2 melanoma = test system: SK-MEL-2 melanoma
NCI/ADR-RES ovarian = test system: NCI/ADR-RES ovarian
SF-268 CNS = test system: SF-268 CNS
COLO 205 colon = test system: COLO 205 colon
IGROV1 ovarian = test system: IGROV1 ovarian
SK-MEL-5 melanoma = test system: SK-MEL-5 melanoma
MCF7 breast = test system: MCF7 breast
HCT-116 colon = test system: HCT-116 colon
ACHN renal = test system: ACHN renal
K-562 leukemia = test system: K-562 leukemia
NCI-H23 lung = test system: NCI-H23 lung
SR leukemia = test system: SR leukemia
RPMI-8226 leukemia = test system: RPMI-8226 leukemia
HT29 colon = test system: HT29 colon
CAKI-1 renal = test system: CAKI-1 renal
UO-31 renal = test system: UO-31 renal
EKVX NSCLC = test system: EKVX NSCLC
OVCAR-8 ovarian = test system: OVCAR-8 ovarian
HCC-2998 colon = test system: HCC-2998 colon
M14 melanoma = test system: M14 melanoma
UACC-62 melanoma = test system: UACC-62 melanoma
786-0 renal = test system: 786-0 renal
SN12C renal = test system: SN12C renal
PC-3 prostate = test system: PC-3 prostate
NCI-H460 lung = test system: NCI-H460 lung
HOP-92 NSCLC = test system: HOP-92 NSCLC
CCRF-CEM leukemia = test system: CCRF-CEM leukemia
HS 578T breast = test system: HS 578T breast
T-47D breast = test system: T-47D breast
SNB-75 CNS = test system: SNB-75 CNS
SK-OV-3 ovarian = test system: SK-OV-3 ovarian
NCI-H522 lung = test system: NCI-H522 lung
SF-295 CNS = test system: SF-295 CNS
SF-539 CNS = test system: SF-539 CNS
SK-MEL-28 melanoma = test system: SK-MEL-28 melanoma
SNB-19 CNS = test system: SNB-19 CNS
MALME-3M melanoma = test system: MALME-3M melanoma
TK-10 renal = test system: TK-10 renal
SW-620 colon = test system: SW-620 colon
U251 CNS = test system: U251 CNS
HL-60(TB) leukemia = test system: HL-60(TB) leukemia
LOX IMVI melanoma = test system: LOX IMVI melanoma
OVCAR-4 ovarian = test system: OVCAR-4 ovarian

O=C(NNc1nc2cc(F)c(F)cc2n2c(CN3CC4CNCC4C3)ccc12)c1ncccn1 (stereo not drawn)
GI50 (HCT-15 colon): 0.526 µM | TGI (HCT-15 colon): 25.1 µM | GI50 (A498 renal): 2.36 µM | TGI (A498 renal): 8.64 µM | GI50 (BT-549 breast): 4.47 µM | TGI (BT-549 breast): 18.7 µM | GI50 (MOLT-4 leukemia): 3.14 µM | TGI (MOLT-4 leukemia): > 100 µM | GI50 (MDA-MB-231 breast): 3.64 µM | TGI (MDA-MB-231 breast): 21 µM | GI50 (A549 NSCLC): 2.82 µM | TGI (A549 NSCLC): 13.2 µM | GI50 (RXF 393 renal): 2 µM | TGI (RXF 393 renal): 9.33 µM | GI50 (KM12 colon): 3.18 µM | TGI (KM12 colon): 22.8 µM | GI50 (UACC-257 melanoma): 2.8 µM | TGI (UACC-257 melanoma): 9.36 µM | GI50 (DU-145 prostate): 2.31 µM | TGI (DU-145 prostate): 16.1 µM | GI50 (MDA-MB-435): 3.85 µM | TGI (MDA-MB-435): 16.4 µM | GI50 (NCI-H226 lung): 2.77 µM | TGI (NCI-H226 lung): 18.1 µM | GI50 (HOP-62 NSCLC): 1.04 µM | TGI (HOP-62 NSCLC): 11.2 µM | GI50 (OVCAR-5 ovarian): 5.08 µM | TGI (OVCAR-5 ovarian): 25.4 µM | GI50 (SK-MEL-2 melanoma): 4.23 µM | TGI (SK-MEL-2 melanoma): 20.7 µM | GI50 (NCI/ADR-RES ovarian): 5.29 µM | TGI (NCI/ADR-RES ovarian): 22.7 µM | GI50 (SF-268 CNS): 1.87 µM | TGI (SF-268 CNS): 14.8 µM | GI50 (COLO 205 colon): 2.81 µM | TGI (COLO 205 colon): 11.8 µM | GI50 (IGROV1 ovarian): 1.85 µM | TGI (IGROV1 ovarian): 12.3 µM | GI50 (SK-MEL-5 melanoma): 1.65 µM | TGI (SK-MEL-5 melanoma): 4.4 µM | GI50 (MCF7 breast): 3.07 µM | TGI (MCF7 breast): 14 µM | GI50 (HCT-116 colon): 1.6 µM | TGI (HCT-116 colon): 14.5 µM | GI50 (ACHN renal): 0.512 µM | TGI (ACHN renal): 10.7 µM | GI50 (K-562 leukemia): 2.4 µM | TGI (K-562 leukemia): 74.5 µM | GI50 (NCI-H23 lung): 3.48 µM | TGI (NCI-H23 lung): 16.2 µM | GI50 (SR leukemia): 1.53 µM | TGI (SR leukemia): > 100 µM | GI50 (RPMI-8226 leukemia): 3.69 µM | TGI (RPMI-8226 leukemia): 55.7 µM | GI50 (HT29 colon): 3.76 µM | TGI (HT29 colon): 32.2 µM | GI50 (CAKI-1 renal): 0.756 µM | TGI (CAKI-1 renal): 11.9 µM | GI50 (UO-31 renal): 0.448 µM | TGI (UO-31 renal): 10.1 µM | GI50 (EKVX NSCLC): 1.79 µM | TGI (EKVX NSCLC): 17.7 µM | GI50 (OVCAR-8 ovarian): 2.18 µM | TGI (OVCAR-8 ovarian): 12.8 µM | GI50 (HCC-2998 colon): 4.14 µM | TGI (HCC-2998 colon): 19.3 µM | GI50 (M14 melanoma): 1.14 µM | TGI (M14 melanoma): 9.42 µM | GI50 (UACC-62 melanoma): 2.57 µM | TGI (UACC-62 melanoma): 11.6 µM | GI50 (786-0 renal): 2.18 µM | TGI (786-0 renal): 9.02 µM | GI50 (SN12C renal): 3.06 µM | TGI (SN12C renal): 13.8 µM | GI50 (PC-3 prostate): 3.22 µM | TGI (PC-3 prostate): 39.6 µM | GI50 (NCI-H460 lung): 0.567 µM | TGI (NCI-H460 lung): 6.99 µM | GI50 (HOP-92 NSCLC): 6.46 µM | TGI (HOP-92 NSCLC): 28.3 µM | GI50 (CCRF-CEM leukemia): 1.86 µM | TGI (CCRF-CEM leukemia): > 100 µM | GI50 (HS 578T breast): 5.98 µM | TGI (HS 578T breast): 37 µM | GI50 (T-47D breast): 3.08 µM | TGI (T-47D breast): 14.2 µM | GI50 (SNB-75 CNS): 2.19 µM | TGI (SNB-75 CNS): 13.6 µM | GI50 (SK-OV-3 ovarian): 1.96 µM | TGI (SK-OV-3 ovarian): 14.8 µM | GI50 (NCI-H522 lung): 4.37 µM | TGI (NCI-H522 lung): 21.2 µM | GI50 (SF-295 CNS): 0.847 µM | TGI (SF-295 CNS): 12.5 µM | GI50 (SF-539 CNS): 2.76 µM | TGI (SF-539 CNS): 9.5 µM | GI50 (SK-MEL-28 melanoma): 2.83 µM | TGI (SK-MEL-28 melanoma): 14.8 µM | GI50 (SNB-19 CNS): 3.53 µM | TGI (SNB-19 CNS): 29.1 µM | GI50 (MALME-3M melanoma): 2.53 µM | GI50 (TK-10 renal): 7.89 µM | TGI (TK-10 renal): 29.7 µM | GI50 (SW-620 colon): 2.48 µM | TGI (SW-620 colon): 16.1 µM | GI50 (U251 CNS): 1.9 µM | TGI (U251 CNS): 14.6 µM | GI50 (HL-60(TB) leukemia): 2.62 µM | TGI (HL-60(TB) leukemia): 10.7 µM | GI50 (LOX IMVI melanoma): 1.06 µM | TGI (LOX IMVI melanoma): 5.21 µM | GI50 (OVCAR-4 ovarian): 2.8 µM | TGI (OVCAR-4 ovarian): 17.9 µM
